Experimental findings from ChEMBL document CHEMBL1201862, “PubChem BioAssay data set” (2004) are described below.

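Method: 48-hour compound exposure of cells in 96-well plates, five concentrations, linear interpolation of endpoints. GI50: concentration for 50% inhibition of growth.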 Activity calls are given as the source filed them. No stated cut-off is given here; in the data, active = GI50 up to about 1.1 µM and inactive = higher. Some results are limits rather than exact numbers.

Among the test systems are HCT-116; M14; SK-MEL-28; 786-0; HT-29; BT-549; NCI-H460; DU-145; HOP-62; MDA-MB-435; T47D; K562; SF-268; Malme-3M; COLO 205; SK-OV-3; RPMI-8226; SF-539; HL-60.
Test in all cases: growth of human tumour cells (NCI), 48 h

Consider `NCCSCc1ccccc1Cl`, for which the GI50 in the assay on HCT-116 is 46.9 µM (inactive); in the assay with M14, 63.4 µM (inactive); in the assay with SK-MEL-28, 64.6 µM (inactive); in the assay with 786-0, 42.7 µM (inactive); in the assay on HT-29, 36.1 µM (inactive); with BT-549 it was 69.7 µM (inactive). For the same molecule, the GI50 is 31.3 µM (inactive) with NCI-H460; 43 µM (inactive) with DU-145; 40.6 µM (inactive) in the assay with HOP-62; 36 µM (inactive) with MDA-MB-435; 42.4 µM (inactive) in the assay with T47D; 26.9 µM (inactive) with K562. The results for the GI50 with SF-268 and in the assay on Malme-3M were 95.7 µM (inactive) and 65.8 µM (inactive), respectively.
As to `O=C1C(c2c(O)[nH]c3ccc([N+](=O)[O-])cc23)=Nc2ccccc21`, the GI50 was > 100 µM (inactive) in the assay on HCT-116; > 100 µM (inactive) with COLO 205; > 100 µM (inactive) in the assay with M14; > 100 µM (inactive) in the assay with SK-MEL-28; 59.8 µM (inactive) in the assay with 786-0; > 100 µM (inactive) in the assay on HT-29. The GI50 in the assay on BT-549 was 52.5 µM (inactive); with NCI-H460, > 100 µM (inactive); with DU-145 it was > 100 µM (inactive); with SK-OV-3, > 100 µM (inactive); in the assay with HOP-62, 87.5 µM (inactive); in the assay on RPMI-8226 it was > 100 µM (inactive). Further, the GI50 in the assay on MDA-MB-435, in the assay with T47D, in the assay with K562, with SF-268 and with Malme-3M was > 100 µM (inactive) each time.
Consider `Cc1ccccc1N/C(N)=N/C#N`, for which the GI50 with HCT-116, with COLO 205, in the assay with M14, in the assay on SK-MEL-28, in the assay with SF-539 and in the assay on 786-0 was > 100 µM (inactive) in each case. In addition, the GI50 in the assay on HT-29, in the assay on BT-549, in the assay on NCI-H460, in the assay on DU-145, with SK-OV-3 and in the assay with HOP-62 was > 100 µM (inactive) each time. Moreover, the GI50 with HL-60, in the assay with RPMI-8226, with MDA-MB-435, with K562, with SF-268 and in the assay on Malme-3M was > 100 µM (inactive) in each case.
Take `O=c1c2sc3ccccc3sc=2c(=O)c2c(Cl)c(Cl)c(Cl)c(Cl)c12`: the GI50 with HCT-116, in the assay on COLO 205, in the assay with M14, with SK-MEL-28, in the assay with 786-0 and in the assay with HT-29 was > 100 µM (inactive) throughout. The GI50 in the assay on BT-549 was > 100 µM (inactive); in the assay with NCI-H460 it was > 100 µM (inactive); with DU-145, > 100 µM (inactive); with SK-OV-3, > 100 µM (inactive); in the assay with HOP-62, > 100 µM (inactive); in the assay with RPMI-8226 it was 42 µM (inactive). The GI50 with MDA-MB-435 is > 100 µM (inactive); in the assay on T47D it was > 100 µM (inactive); in the assay with K562, 34.8 µM (inactive); in the assay on SF-268, > 100 µM (inactive); in the assay with Malme-3M, > 100 µM (inactive).
Regarding `C[N+]1([O-])CCC(O)(C2CC2)CC1` (stereo not given), the GI50 is > 100 µM (inactive) with HCT-116; > 100 µM (inactive) with COLO 205; > 100 µM (inactive) with M14; 0.0399 µM (active) with SK-MEL-28; > 100 µM (inactive) in the assay with 786-0; > 100 µM (inactive) in the assay on HT-29. The GI50 in the assay with BT-549, in the assay with DU-145, in the assay with SK-OV-3, in the assay with HOP-62, in the assay on HL-60 and in the assay with RPMI-8226 was > 100 µM (inactive) each time. The GI50 with MDA-MB-435, in the assay on T47D, in the assay on K562, in the assay on SF-268 and with Malme-3M was > 100 µM (inactive) throughout.
As for `COc1cc(C)c2c(=O)c3ccccc3n(C)c2c1`, the GI50 is 18.5 µM (inactive) in the assay on HCT-116; 26.9 µM (inactive) in the assay on COLO 205; 27.2 µM (inactive) with M14; 32 µM (inactive) with SK-MEL-28; 15.6 µM (inactive) in the assay with SF-539; 10.6 µM (inactive) in the assay with 786-0. The GI50 in the assay on HT-29 was 11.8 µM (inactive); with BT-549 it was 20.8 µM (inactive); with NCI-H460, 33.3 µM (inactive); in the assay on DU-145, 33.2 µM (inactive); with SK-OV-3, 43.1 µM (inactive); with HOP-62 it was > 10 µM (inactive). Moreover, the GI50 in the assay on HL-60 is 32.7 µM (inactive); with RPMI-8226, > 10 µM (inactive); with MDA-MB-435 it was 40.8 µM (inactive); with K562 it was 17.1 µM (inactive); with SF-268 it was 30.5 µM (inactive); in the assay with Malme-3M, 27.1 µM (inactive).
Take `CC1=C2CC(C)(C)CC(=O)C2(C)CCC1=O` (stereo not given): the GI50 with HCT-116, in the assay on COLO 205, with M14, with SK-MEL-28, in the assay on SF-539 and in the assay on 786-0 was > 100 µM (inactive) in each case. The GI50 with HT-29, with BT-549, with NCI-H460, in the assay with DU-145, in the assay on SK-OV-3 and in the assay with HOP-62 was > 100 µM (inactive) throughout. The GI50 in the assay with HL-60 was > 100 µM (inactive); in the assay on RPMI-8226, 3.02 µM (inactive); in the assay with T47D, > 100 µM (inactive); with K562 it was > 100 µM (inactive); in the assay on SF-268, > 100 µM (inactive); in the assay on Malme-3M, > 100 µM (inactive).
As to `O=c1[nH]cc(NCCCl)c(=O)[nH]1`, the GI50 in the assay with HCT-116, in the assay on COLO 205, in the assay with M14, in the assay on SK-MEL-28, in the assay with SF-539 and with 786-0 was > 100 µM (inactive) each time. Further, the GI50 in the assay on HT-29, in the assay on BT-549, in the assay on NCI-H460, with DU-145, with SK-OV-3 and in the assay with HOP-62 was > 100 µM (inactive) each time. For the same molecule, the GI50 in the assay on RPMI-8226, in the assay on MDA-MB-435, with T47D, with K562, with SF-268 and with Malme-3M was > 100 µM (inactive) each time.
As to `O=C(Nc1ccc(Cl)c(C(F)(F)F)c1)C(=O)c1c(O)c2ccccc2oc1=O`, the GI50 in the assay on HCT-116, in the assay on M14, with SK-MEL-28, in the assay with SF-539, in the assay with 786-0 and with HT-29 was > 100 µM (inactive) each time. The GI50 in the assay with BT-549 is > 100 µM (inactive); with NCI-H460 it was > 100 µM (inactive); with SK-OV-3, > 100 µM (inactive); in the assay on HOP-62, > 100 µM (inactive); with HL-60, > 10 µM (inactive); in the assay with RPMI-8226 it was > 100 µM (inactive). Moreover, the GI50 in the assay with MDA-MB-435, with T47D, in the assay with K562, in the assay with SF-268 and in the assay on Malme-3M was > 100 µM (inactive) each time.
For `CCN(CC)CCCNC(=O)c1cc2cc(NC(=O)c3cc4cc([N+](=O)[O-])ccc4[nH]3)ccc2[nH]1`, the GI50 is > 100 µM (inactive) in the assay with HCT-116; > 100 µM (inactive) in the assay with COLO 205; > 100 µM (inactive) in the assay with M14; 30.3 µM (inactive) with SK-MEL-28; 48.5 µM (inactive) in the assay with SF-539; 40.8 µM (inactive) in the assay with 786-0. Further, the GI50 in the assay with HT-29 was 35 µM (inactive); with BT-549, > 100 µM (inactive); in the assay with NCI-H460 it was > 100 µM (inactive); in the assay on DU-145, > 100 µM (inactive); in the assay with SK-OV-3 it was > 100 µM (inactive); in the assay with HOP-62 it was 28.6 µM (inactive). Moreover, the GI50 with RPMI-8226 was 16.9 µM (inactive); with MDA-MB-435, 51.1 µM (inactive); in the assay on T47D, > 100 µM (inactive); in the assay on K562 it was > 100 µM (inactive); in the assay with SF-268, > 100 µM (inactive).
For `CCOC(=O)c1c(O)cn2c1[nH]c1cccc3cccc2c31`, the GI50 with HCT-116 was > 100 µM (inactive); with COLO 205, 71.6 µM (inactive); with M14 it was > 100 µM (inactive); in the assay on SK-MEL-28 it was > 100 µM (inactive); with 786-0, 52.2 µM (inactive); with HT-29, > 100 µM (inactive). Further, the GI50 was > 100 µM (inactive) in the assay on BT-549; 92.7 µM (inactive) with NCI-H460; 71.6 µM (inactive) in the assay on DU-145; > 100 µM (inactive) with SK-OV-3; 35.6 µM (inactive) with HOP-62; 57.3 µM (inactive) with HL-60. Moreover, the GI50 with RPMI-8226 was > 100 µM (inactive); with MDA-MB-435, > 100 µM (inactive); in the assay with T47D, 50.8 µM (inactive); in the assay on K562, > 100 µM (inactive); with SF-268, 63.7 µM (inactive); in the assay on Malme-3M, > 100 µM (inactive).
Take `O=C(O)Cc1ccc2nc(COC(=O)c3ccccc3)sc2c1`: the GI50 was 83.8 µM (inactive) in the assay with HCT-116; > 100 µM (inactive) in the assay on COLO 205; > 100 µM (inactive) in the assay with M14; > 100 µM (inactive) in the assay on SK-MEL-28; > 100 µM (inactive) with 786-0; > 100 µM (inactive) in the assay on BT-549. Moreover, the GI50 in the assay on NCI-H460, with DU-145, in the assay on SK-OV-3, in the assay on HOP-62, in the assay on RPMI-8226 and in the assay with MDA-MB-435 was > 100 µM (inactive) throughout. Further, the GI50 in the assay with T47D, in the assay on K562, with SF-268 and in the assay with Malme-3M was > 100 µM (inactive) in each case.
